One assay concerns COLO 205. In words: Antiproliferative activity against human COLO205 cells after 48 hrs by XTT assay. The note with it: COLO 205, 48 h.
The next assay relates to KM12. In words: Antiproliferative activity against human KM12 cells after 48 hrs by XTT assay. Particulars: KM12, 48 h.
Assay [1] relates to Panel NCI-60 (60 carcinoma cell lines). The assay is described as follows: Antiproliferative activity against human NCI60 cells at 10 uM after 48 hrs by sulforhodamine B assay relative to control. Type of assay: functional. In general terms: Sulforhodamine B stains cellular protein and so reports cell mass.
Assay [2] has the same test system. The assay is described as follows: Antiproliferative activity against human NCI60 cells after 48 hrs by sulforhodamine B assay. Format: functional, cell-based.

IC50 and Activity data for 3 compounds are collected here from ChEMBL document CHEMBL4190229, “Growth Inhibition of Colon Cancer and Melanoma Cells by Versiol Derivatives from a Paraconiothyrium Species” (J Nat Prod, 2017).

Bounds are passed on as bounds.

Broadly, the IC50 is the concentration that inhibits the measured activity by half. Low values mean greater potency in that assay, high ones weaker potency in that assay. Regarding `CC(=O)CC/C=C(\C)[C@H](O)[C@H](C)C(=O)O[C@H]1C[C@H](C)C=C2C=C[C@@]3(C)O[C@@H](O)CC(=O)[C@]3(C)[C@H]21`, the half-inhibitory concentration (IC50) with COLO 205 and with KM12 was < 1.25 µM throughout. Besides, the Activity is -34% in assay [1] and “Dose-dependent effect” in assay [2].

`C/C(=C\C=C\[C@H](C)CC(=O)O)[C@H](O)[C@H](C)C(=O)O[C@H]1C[C@@H](C)[C@@H](O)c2ccc(C)c(C)c21`: the half-inhibitory concentration (IC50) with COLO 205 is 12.5 µM; in the assay with KM12 it was 6.5 µM. Further, the Activity in assay [1] is 89%.

In the case of `CC(/C=C/C=C(\C)[C@H](O)[C@H](C)C(=O)O[C@H]1C[C@H](C)C=C2C=C[C@@]3(C)O[C@@H](O)CC(=O)[C@]3(C)[C@H]21)=C\C=C\C(=O)O`, the IC50 in the assay on COLO 205 and with KM12 was < 1.25 µM in each case. Also, the Activity in assay [1] was -3%.
